Data as given in EP0454444A1, “Glutarimide derivatives and herbicides” (NISSAN CHEMICAL INDUSTRIES LTD., priority 1990, dated 1991).

Columns and labels:
Assay in all cases: Herbicidal effect test by soil treatment
Type in all cases: in vivo
[1] = tested on: annual sedge (Cyperus microiria); conditions: three weeks after spraying
Text: (§1) In a plastic box of 15 cm length, 22 cm width and 6 cm depth, there was placed a sterilized dilvial soil, and seeds of barnyardgrass (Echinochloa crusgalli), large crabgrass (Digitaria adscendens), annual sedge (Cyperus microiria), black nightshade (Solanum nigrum L.), hairly galinosoga (Galinsoga ciliat), rorippa ssp. (Rorippa atrovirens), rice (Oryza sativa), corn (Zea mays), wheat (Triticum aestivum), soybean (Glysine max) and cotton (Gossypium herbaceum) were sown mixedly. After covering soil to about 1 cm over the seeds, herbicides were sprayed evenly on the soil surface to predetermined proportions of the active ingredient In spraying, the wettable powder, emulsifiable concentrate, dry flowable or flowable in the above formulation examples were diluted with water and sprayed over the entire surface by means of a small sprayer. Three weeks after spraying, the herbicidal effect on crop plants including rice, corn, wheat, soybean, cotton and various kinds of weeds were examined according to the judgement criteria shown below. Judgement criteria
(§2) The above growth control rates are determined by measuring the top fresh weights of the treated plants and those of the non-treated plants, and culculated from the following formula: [formula]

[2] = tested on: rorippa ssp. (Rorippa atrovirens); conditions: three weeks after spraying
Text: as §1, §2

[3] = tested on: hairly galinosoga (Galinsoga ciliat); conditions: three weeks after spraying
Text: as §1, §2

[4] = tested on: large crabgrass (Digitaria adscendens); conditions: three weeks after spraying
Text: as §1, §2

[5] = tested on: soybean (Glysine max); conditions: crop plant, three weeks after spraying
Text: as §1, §2

[6] = tested on: cotton (Gossypium herbaceum); conditions: crop plant, three weeks after spraying
Text: as §1, §2

[7] = tested on: black nightshade (Solanum nigrum L.); conditions: three weeks after spraying
Text: as §1, §2

[8] = tested on: corn (Zea mays); conditions: crop plant, three weeks after spraying
Text: as §1, §2

[9] = tested on: barnyardgrass (Echinochloa crusgalli); conditions: three weeks after spraying
Text: as §1, §2

[10] = tested on: wheat (Triticum aestivum); conditions: crop plant, three weeks after spraying
Text: as §1, §2

[11] = tested on: rice (Oryza sativa); conditions: crop plant, three weeks after spraying
Text: as §1, §2

CC(C)OC(=O)c1cc(N2C(=O)CC(C(F)(F)F)C(C)C2=O)c(F)cc1Cl (stereo not drawn) [1-3]
herbicidal effect, K (Cyperus microiria) ([1]; application amount 0.4 g/a): 5 (Growth control,rates of more than 90% (almost completely withered)) | herbicidal effect, K (Cyperus microiria) ([1]; application amount 0.8 g/a): 5 (Growth control,rates of more than 90% (almost completely withered)) | herbicidal effect, K (Cyperus microiria) ([1]; application amount 1.6 g/a): 5 (Growth control,rates of more than 90% (almost completely withered)) | herbicidal effect, I (Rorippa indica) ([2]; application amount 0.4 g/a): 5 (Growth control,rates of more than 90% (almost completely withered)) | herbicidal effect, I (Rorippa indica) ([2]; application amount 0.8 g/a): 5 (Growth control,rates of more than 90% (almost completely withered)) | herbicidal effect, I (Rorippa indica) ([2]; application amount 1.6 g/a): 5 (Growth control,rates of more than 90% (almost completely withered)) | herbicidal effect, D (Galinsoga ciliat) ([3]; application amount 0.4 g/a): 5 (Growth control,rates of more than 90% (almost completely withered)) | herbicidal effect, D (Galinsoga ciliat) ([3]; application amount 0.8 g/a): 5 (Growth control,rates of more than 90% (almost completely withered)) | herbicidal effect, D (Galinsoga ciliat) ([3]; application amount 1.6 g/a): 5 (Growth control,rates of more than 90% (almost completely withered)) | herbicidal effect, M (Digitaria adscendens) ([4]; application amount 0.4 g/a): 5 (Growth control,rates of more than 90% (almost completely withered)) | herbicidal effect, M (Digitaria adscendens) ([4]; application amount 0.8 g/a): 5 (Growth control,rates of more than 90% (almost completely withered)) | herbicidal effect, M (Digitaria adscendens) ([4]; application amount 1.6 g/a): 5 (Growth control,rates of more than 90% (almost completely withered)) | herbicidal effect, S (Glysine max) ([5]; application amount 0.4 g/a): 0 (Growth control rates of less than 5% (substantially no effect)) | herbicidal effect, S (Glysine max) ([5]; application amount 0.8 g/a): 0 (Growth control rates of less than 5% (substantially no effect)) | herbicidal effect, S (Glysine max) ([5]; application amount 1.6 g/a): 2 (Growth control rates of 20 to 40%) | herbicidal effect, C (Gossypium herbaceum) ([6]; application amount 0.4 g/a): 0 (Growth control rates of less than 5% (substantially no effect)) | herbicidal effect, C (Gossypium herbaceum) ([6]; application amount 0.8 g/a): 1 (Growth control rates of 5 to 20%) | herbicidal effect, C (Gossypium herbaceum) ([6]; application amount 1.6 g/a): 3 (Growth control rates of 40 to 70%) | herbicidal effect, H (Solanum nigrum L.) ([7]; application amount 0.4 g/a): 5 (Growth control,rates of more than 90% (almost completely withered)) | herbicidal effect, H (Solanum nigrum L.) ([7]; application amount 0.8 g/a): 5 (Growth control,rates of more than 90% (almost completely withered)) | herbicidal effect, H (Solanum nigrum L.) ([7]; application amount 1.6 g/a): 5 (Growth control,rates of more than 90% (almost completely withered)) | herbicidal effect, T (Zea mays) ([8]; application amount 0.4 g/a): 2 (Growth control rates of 20 to 40%) | herbicidal effect, T (Zea mays) ([8]; application amount 0.8 g/a): 3 (Growth control rates of 40 to 70%) | herbicidal effect, T (Zea mays) ([8]; application amount 1.6 g/a): 4 (Growth control rates of 70 to 90%) | herbicidal effect, N (Echinochloa crusgalli) ([9]; application amount 0.4 g/a): 5 (Growth control,rates of more than 90% (almost completely withered)) | herbicidal effect, N (Echinochloa crusgalli) ([9]; application amount 0.8 g/a): 5 (Growth control,rates of more than 90% (almost completely withered)) | herbicidal effect, N (Echinochloa crusgalli) ([9]; application amount 1.6 g/a): 5 (Growth control,rates of more than 90% (almost completely withered)) | herbicidal effect, W (Triticum vulgare) ([10]; application amount 0.4 g/a): 2 (Growth control rates of 20 to 40%) | herbicidal effect, W (Triticum vulgare) ([10]; application amount 0.8 g/a): 3 (Growth control rates of 40 to 70%) | herbicidal effect, W (Triticum vulgare) ([10]; application amount 1.6 g/a): 5 (Growth control,rates of more than 90% (almost completely withered)) | herbicidal effect, R (Oryza sativa) ([11]; application amount 0.4 g/a): 4 (Growth control rates of 70 to 90%) | herbicidal effect, R (Oryza sativa) ([11]; application amount 0.8 g/a): 5 (Growth control,rates of more than 90% (almost completely withered)) | herbicidal effect, R (Oryza sativa) ([11]; application amount 1.6 g/a): 5 (Growth control,rates of more than 90% (almost completely withered))
